Assay results from patent US20250034592A1, “NEUROPEPTIDE-[…] AND METHODS FOR THE TREATMENT OF EPILEPSY” (CHARITE - UNIVERSIT[…], priority 2016, published 2025).

Test system: pDyn deficient mice
Assay: Seizure threshold, pentylenetetrazole (PTZ) tail-vein infusion
Type: in vivo
Conditions: FIG. 6; for potency in seizure threshold test: compared with Dyn B
Description: Pentylenetetrazole is an inhibitor of GABAA receptors and induces seizures upon injection into the tail vein. pDyn deficient animals display a reduce seizure threshold compared to wild-type mice. […] From this, we expect an early onset of the effect of gene therapy and a lower number of vectors needed per patient.
The seizure threshold is a measure for the susceptibility to develop seizures. The resistance against seizure-inducing agents or stimuli is used as readout in animals. Infusion of pentylenetetrazole, a GABAA receptor antagonist, into the tail vein of rodents is an accepted method to measure the seizure threshold. […] This can be rescued by kappa opioid receptors agonists.
Seizure threshold was determined by pentylenetetrazole (PTZ) (see FIG. 6) tail-vein infusion on freely moving pDyn deficient mice at a rate of 100 μl/min ([…] PTZ in saline, pH 7.4). […] The seizure threshold dose was calculated from the infused volume in relation to body weight. Dyn B or modified variants thereof were dissolved in DMSO and diluted to the final dosages in saline containing final concentrations of 10% DMSO, 3% Tween 80. 3 μl of peptide-solution were applied 30 min. before tail-vein infusion under mild sevoflurane anaesthesia into the cisterna magna. The following peptides were tested: Dyn B=SEQ ID No. 8, Dyn B G3A=SEQ ID 10 No. 11 wherein Z at position 3 is alanine, Dyn B G3A+Q8A=SEQ ID No. 11 wherein Z at position 3 is alanine and Z at position 8 of SEQ ID No. 11 is alanine, Dyn B Q8A=SEQ ID No. 11 wherein Z at position 8 is alanine.

Substance | potency in seizure threshold test | seizure threshold (peptide applied into cisterna magna 30 min before)
Dyn B G3A+Q8A: SEQ ID No. 11 wherein Z at position 3 is alanine and Z at position 8 is alanine (YGAFLRRAFKVVT; VARIANT 3 Any amino acid; VARIANT 8 Any amino acid; listed as Homo sapiens) | higher potency | 
Dyn B G3A: SEQ ID No. 11 (YGZFLRRZFKVVT) wherein Z at position 3 is alanine (YGAFLRRXFKVVT; VARIANT 3 Any amino acid; VARIANT 8 Any amino acid; listed as Homo sapiens) | higher potency | 
Dynorphin B [Dyn B, reference compound] |  | rescued
